# Entries after “also recorded” stand apart in the source; their conditions may differ.
# Columns and labels:
# [1] = tested on: Patientinnen, die an hypothalamischer Amenorrhoe litten; assay: Naltrexon administration to patients with hypothalamic amenorrhea (serial blood sampling for LH, FSH, prolactin and ovarian steroids; ultrasound); type: in vivo
# Excerpt: Im Rahmen der vorliegenden Erfindung wurden Untersuchungen an Patientinnen mit hypothalamischer Amenorrhoe durchgeführt. Diese Untersuchungen haben überraschenderweise gezeigt, daß durch die Gabe des Opiat-Antagonisten Naltrexon eine Zunahme von Frequenz und Amplitude der LH und FSH Sekretion erreicht wird. Es kann daher davon ausgegangen werden, daß die endogene GnRH Sekretion durch den Opiat-Antagonisten vermehrt wird.
# Die basale Gonadotropin Sekretion von Patientinnen, die an hypothalamischer Amenorrhoe litten, wurde durch Bestimmung von LH und FSH, Prolactin und Ovarien-Steroiden in ßlutproben bewertet, die alle zehn Minuten während 24 Stunden entnommen wurden. Naltrexon wurde dann in einer Dosis von 50 mg pro Tag während 24 oder 28 Tagen verabreicht. 5 Tage und 14 Tage nach dem Beginn der Naltrexonverabreichung wurden wiederholte Blutproben entnommen. An den übrigen Tagen wurden täglich Blutproben entnommen und es wurde eine Ultraschalluntersuchung nach der Naltrexonverabreichung sowie einige Tage danach durchgeführt. Es wurden folgende Ergebnisse ermittelt:
# Auf die Verabreichung von Naltrexon folgte eine Zunahme der Frequenz und der Amplitude der pulsatielen Gonadotropin Sekretion sowie eine Zunahme der mittleren LH und FSH Serumkonzentration sowie der Entwicklung der Gonaden-Steroid Sekretion und der Follikel, was durch Ultraschall festgestellt wurde.
# [2] = general statement on the known drug; oral administration possible; cited from earlier work
# [3] = hypothalamic amenorrhea, 50 mg pro Tag während 24 oder 28 Tagen
# [4] = patients with hypothalamic amenorrhea, summary statement
compound,measurement,setting,value
"O=C1CC[C@@]2(O)[C@H]3Cc4ccc(O)c5c4[C@@]2(CCN3CC2CC2)C1O5 (stereo partly drawn) [Naltrexon, 17-(Cyclopropylmethyl)-4,5-epoxy-3,14-dihydroxymorphinan-6-on]",Entwicklung der Follikel,"[1]; by ultrasound, hypothalamic amenorrhea, 50 mg pro Tag während 24 oder 28 Tagen",Zunahme
same,Amplitude der pulsatielen Gonadotropin Sekretion,[1]; [3],Zunahme
same,Entwicklung der Gonaden-Steroid Sekretion,[1]; [3],Zunahme
same,Frequenz der pulsatielen Gonadotropin Sekretion,[1]; [3],Zunahme
same,mittlere FSH Serumkonzentration,[1]; [3],Zunahme
same,mittlere LH Serumkonzentration,[1]; [3],Zunahme
same,Menstruation nach Absetzen des Mittels,"[1]; patients who menstruated after withdrawal, hypothalamic amenorrhea, 50 mg pro Tag während 24 oder 28 Tagen",Sämtliche Patientinnen menstruierten
same,Ovulation,"[1]; patients who ovulated, hypothalamic amenorrhea, 50 mg pro Tag während 24 oder 28 Tagen","führte zur Normalisierung der Gonadotropin-Sekretion, zur Ovulation; also recorded: Eine von 3 Patientinnen ovulierte"
same,Bildung eines Corpus luteum,[1]; [4],zur Bildung eines Corpus luteum
same,Gonadotropin-Sekretion,[1]; [4],Normalisierung
same,menstrueller Zyklus,[1]; [4],Normalisierung
same,Verweildauer im Plasma,[2],lange

# Source: patent EP0567205A1, “Use of opiate antagonists in the manufacture of agents for the diagnosis and therapy of hypothalamic function disorders” (Ferring Arzneimittel GmbH, priority 1986, dated 1988)
